Toxic doses and inconclusive results are not listed.

Our source for the T/C values is PubChem BioAssay AID192 (DTP/NCI, 2004).

This experiment concerns BDF1 mice, B16 melanoma ip, median survival T/C. Description: NCI In Vivo Anticancer Drug Screen. Data for tumor model B16 Melanoma (intraperitoneal) in B6D2F1 (BDF1) mice. The settings on record: endpoint: median survival time, higher = longer survival. The gist of the method: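 Survival or tumor size is measured after treatment of tumor-bearing mice and normalised to the vehicle-treated control group.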

The mark [1] stands for this setting: dose: 100.0 mg/kg/injection, schedule: Q01DX009 (ip), vehicle: saline with Tween-80.
Where [2] appears, read: dose: 200.0 mg/kg/injection, schedule: Q01DX009 (ip), vehicle: saline with Tween-80.
Setting [3] is: dose: 100.0 mg/kg/injection, schedule: Q04DX003 (ip), vehicle: Klucel (hydroxypropylcellulose) (HPC).
Where [4] appears, read: dose: 200.0 mg/kg/injection, schedule: Q04DX003 (ip), vehicle: Klucel (hydroxypropylcellulose) (HPC).
The mark [5] stands for this setting: dose: 400.0 mg/kg/injection, schedule: Q04DX003 (ip), vehicle: Klucel (hydroxypropylcellulose) (HPC).
Setting [6] is: dose: 6.25 mg/kg/injection, schedule: Q01DX009 (ip), vehicle: saline with Tween-80.
[7] abbreviates: dose: 12.5 mg/kg/injection, schedule: Q01DX009 (ip), vehicle: saline with Tween-80.
The mark [8] stands for this setting: dose: 25.0 mg/kg/injection, schedule: Q01DX009 (ip), vehicle: saline with Tween-80.
Setting [9] is: dose: 50.0 mg/kg/injection, schedule: Q01DX009 (ip), vehicle: saline.
[10] abbreviates: dose: 100.0 mg/kg/injection, schedule: Q01DX009 (ip), vehicle: saline.
Setting [11] is: dose: 200.0 mg/kg/injection, schedule: Q01DX009 (ip), vehicle: saline.
[12] abbreviates: dose: 100.0 mg/kg/injection, schedule: Q01DX009 (ip), vehicle: Klucel (hydroxypropylcellulose) (HPC).
Where [13] appears, read: dose: 200.0 mg/kg/injection, schedule: Q01DX009 (ip), vehicle: Klucel (hydroxypropylcellulose) (HPC).
Setting [14] is: dose: 400.0 mg/kg/injection, schedule: Q01DX009 (ip), vehicle: Klucel (hydroxypropylcellulose) (HPC).
Where [15] appears, read: dose: 50.0 mg/kg/injection, schedule: Q01DX009 (ip), vehicle: Klucel (hydroxypropylcellulose) (HPC).
Setting [16] is: dose: 50.0 mg/kg/injection, schedule: Q01DX009 (ip), vehicle: saline with Tween-80.

`COc1c(Cl)c2c(c(OC)c1OC)-c1ccc(OC)c(=O)cc1C(NC(C)=O)CC2` (stereo not drawn): the T/C is 118 % of control (dose: 0.38 mg/kg/injection, schedule: Q01DX009 (ip), vehicle: Klucel (hydroxypropylcellulose) (HPC)); 123 % of control (dose: 0.75 mg/kg/injection, schedule: Q01DX009 (ip), vehicle: Klucel (hydroxypropylcellulose) (HPC)); 109 % of control (dose: 3.0 mg/kg/injection, schedule: Q01DX009 (ip), vehicle: Klucel (hydroxypropylcellulose) (HPC)).

`O=[N+]([O-])c1ccc2c(N=Nc3c(O)ccc4ccccc34)c(O)cc(S(=O)(=O)O)c2c1`: the T/C by setting is: under setting [1], 106 % of control; under setting [2], 102 % of control.

On to `CCOC(=O)NC(C)(C)CN(CCCO)C(=O)OCC`, for which the T/C reads like this: under setting [3], 100 % of control; under setting [4], 100 % of control; under setting [5], 97 % of control.

Turning to `COc1ccccc1NC(=O)Nc1ccc(F)cc1`, the T/C was 95 % of control under setting [3], 95 % of control under setting [4] and 89 % of control under setting [5].

As to `Nc1cc2c(c[n+](CCCCCCCC[n+]3cc4c5ccccc5c(N)cc4c4ccccc43)c3ccccc23)c2ccccc12`, the T/C was 120 % of control (dose: 0.78 mg/kg/injection, schedule: Q01DX009 (ip), vehicle: distilled water + Tween-80); 118 % of control (dose: 1.25 mg/kg/injection, schedule: Q01DX009 (ip), vehicle: saline with Tween-80); 114 % of control (dose: 1.56 mg/kg/injection, schedule: Q04DX003 (ip), vehicle: distilled water + Tween-80); 123 % of control (dose: 2.5 mg/kg/injection, schedule: Q01DX009 (ip), vehicle: saline with Tween-80); 156 % of control (dose: 2.59 mg/kg/injection, schedule: Q01DX009 (ip), vehicle: distilled water + Tween-80); 108 % of control (dose: 3.12 mg/kg/injection, schedule: Q04DX003 (ip), vehicle: distilled water + Tween-80). In addition, the T/C runs as follows: (dose: 4.32 mg/kg/injection, schedule: Q01DX009 (ip), vehicle: distilled water + Tween-80) 167 % of control; (dose: 6.25 mg/kg/injection, schedule: Q01DX009 (ip), vehicle: distilled water + Tween-80) 162 % of control; (dose: 7.2 mg/kg/injection, schedule: Q01DX009 (ip), vehicle: distilled water + Tween-80) 180 % of control; (dose: 10.0 mg/kg/injection, schedule: Q01DX009 (ip), vehicle: saline with Tween-80) 166 % of control; (dose: 12.0 mg/kg/injection, schedule: Q01DX009 (ip), vehicle: distilled water + Tween-80) 182 % of control; (dose: 12.5 mg/kg/injection, schedule: Q01DX009 (ip), vehicle: distilled water + Tween-80) 88 % of control. Also, the T/C is, setting by setting: (dose: 20.0 mg/kg/injection, schedule: Q01DX009 (ip), vehicle: saline with Tween-80) 160 % of control; (dose: 25.0 mg/kg/injection, schedule: Q04DX003 (ip), vehicle: distilled water + Tween-80) 106 % of control.

For the compound `COc1ccc2c(c1)c(C#N)cc[n+]2C`, the T/C is 102 % of control (dose: 3.13 mg/kg/injection, schedule: Q01DX009 (ip), vehicle: saline) and 100 % of control (dose: 6.25 mg/kg/injection, schedule: Q01DX009 (ip), vehicle: saline).

As for `CCS(=O)(=O)Nc1cccc(Nc2c3cccc(C)c3nc3c(C)cccc23)c1OC`, the T/C under setting [6] was 185 % of control, the T/C under setting [7] is 203 % of control and the T/C under setting [8] was 87 % of control.

Turning to `CN(C)CC1CCCCN1` (stereo not drawn), the T/C under setting [9] is 100 % of control, the T/C under setting [10] was 100 % of control and the T/C under setting [11] was 100 % of control.

Turning to `Cc1cc(NCCCCCCCNc2cc(C)nc3cc(N)ccc23)c2ccc(N)cc2n1`, the T/C reads like this: (dose: 0.78 mg/kg/injection, schedule: Q01DX009 (ip), vehicle: saline with Tween-80) 99 % of control; (dose: 1.56 mg/kg/injection, schedule: Q01DX009 (ip), vehicle: saline with Tween-80) 100 % of control; (dose: 3.12 mg/kg/injection, schedule: Q01DX009 (ip), vehicle: saline with Tween-80) 113 % of control; under setting [6], 103 % of control; under setting [7], 100 % of control.

`CN(C)c1ccc(/C=C/c2cc[n+](C)cc2)cc1`: the T/C is, setting by setting: (dose: 1.32 mg/kg/injection, schedule: Q04DX003 (ip), vehicle: saline with Tween-80) 95 % of control; (dose: 4.0 mg/kg/injection, schedule: Q04DX003 (ip), vehicle: saline with Tween-80) 150 % of control; (dose: 8.0 mg/kg/injection, schedule: Q04DX003 (ip), vehicle: saline with Tween-80) 117 % of control.

For `CCOc1ccc(N=Nc2ccc(N)cc2N)cc1`, the T/C runs as follows: under setting [12], 101 % of control; under setting [13], 106 % of control; under setting [14], 108 % of control.

In the case of `CC(=O)Nc1nc(=O)n(CC(=O)c2cccs2)cc1F`, the T/C reads like this: (dose: 6.25 mg/kg/injection, schedule: Q01DX009 (ip), vehicle: carboxymethylcellulose (CMC)) 100 % of control; (dose: 12.5 mg/kg/injection, schedule: Q01DX009 (ip), vehicle: carboxymethylcellulose (CMC)) 99 % of control; (dose: 25.0 mg/kg/injection, schedule: Q01DX009 (ip), vehicle: carboxymethylcellulose (CMC)) 94 % of control; under setting [15], 96 % of control; (dose: 50.0 mg/kg/injection, schedule: Q01DX009 (ip), vehicle: carboxymethylcellulose (CMC)) 102 % of control.

As for `COc1ccc(NC(=O)Nc2cc(C(F)(F)F)ccc2Cl)cc1`, the T/C was 100 % of control (dose: 8.0 mg/kg/injection, schedule: Q01DX009 (ip), vehicle: saline with Tween-80); 100 % of control (dose: 12.0 mg/kg/injection, schedule: Q01DX009 (ip), vehicle: saline with Tween-80); 215 % of control under setting [7]; 104 % of control (dose: 18.0 mg/kg/injection, schedule: Q01DX009 (ip), vehicle: saline with Tween-80); 194 % of control under setting [8]; 218 % of control under setting [16].

For `CCCCNC(=S)S`, the T/C is, setting by setting: (dose: 100.0 mg/kg/injection, schedule: Q01DX009 (ip), vehicle: other) 90 % of control; (dose: 200.0 mg/kg/injection, schedule: Q01DX009 (ip), vehicle: other) 94 % of control.

As for `O=C(O)CNC(=O)C(Br)Cc1ccccc1` (stereo not drawn), the T/C by setting is: under setting [8], 91 % of control; under setting [16], 88 % of control; under setting [1], 91 % of control; (dose: 400.0 mg/kg/injection, schedule: Q01DX009 (ip), vehicle: saline with Tween-80) 89 % of control.

Turning to `CCCCNC(C)(C)C(SSSC(c1cccs1)C(C)(C)NCCCC)c1cccs1` (stereo not drawn), the T/C under setting [7] was 96 % of control and the T/C under setting [8] was 86 % of control.

With `O=[N+]([O-])c1cc([N+](=O)[O-])c(/C=C/c2ccccc2)c([N+](=O)[O-])c1/C=C/c1ccccc1`, the T/C runs as follows: under setting [12], 105 % of control; under setting [3], 102 % of control; under setting [13], 107 % of control; under setting [4], 94 % of control; under setting [14], 94 % of control; under setting [5], 89 % of control.

Consider `N=C(N)SCc1cccc2c(=O)cc(-c3ccccc3)oc12`, for which the T/C is 101 % of control under setting [9], 111 % of control under setting [10] and 86 % of control under setting [11].

On to `CCOC(CNC(=O)OCc1ccccc1)OCC`, for which the T/C under setting [12] was 93 % of control, the T/C under setting [13] is 93 % of control and the T/C under setting [14] is 90 % of control.

For the compound `O=CNC(c1ccccc1)(c1ccccc1)c1ccccc1`, the T/C is, setting by setting: under setting [12], 97 % of control; under setting [13], 94 % of control; under setting [14], 94 % of control.

`Cc1c(Cl)cccc1NC(=O)c1ccc([N+](=O)[O-])cc1`: the T/C was 105 % of control under setting [1] and 100 % of control under setting [2].

Turning to `Nc1nc(O)c(CC(=O)O)s1`, the T/C is 88 % of control (dose: 12.5 mg/kg/injection, schedule: Q01DX009 (ip), vehicle: Klucel (hydroxypropylcellulose) (HPC)); 91 % of control (dose: 25.0 mg/kg/injection, schedule: Q01DX009 (ip), vehicle: Klucel (hydroxypropylcellulose) (HPC)); 95 % of control under setting [15].
